Where only a bound is given, the exact number is not on record here.

The assay has as its target T1, recombinant LRRK2 kinase (Homo sapiens, UniProt Q5S007).
T1 construct: purchased Signal Chem, Richmond, BC, Canada
Kind of assay: LRRK2 kinase inhibition (Kinase-Glo luminescence). Type of assay: biochemical. Conditions: IC50 grade; 25 μmol/L ATP, LRRKtide, 30° C. 2 hours; read-out: Enzyme activity LRRK2. As to the method: Upon completion of the reaction, an equal amount of Kinase-Glo (Promega, Madison, Wis.) solution was added thereto, followed by reaction for 40 minutes. A detection solution was added thereto, followed by further reaction at room temperature for 30 minutes. Then, IC50 of kinase was calculated by measuring the amount of luciferase using a microplate ELISA reader (Bio-Tek).
In general terms: In Kinase-Glo more light means more ATP remaining.

T1 sequence (Q5S007 whole entry): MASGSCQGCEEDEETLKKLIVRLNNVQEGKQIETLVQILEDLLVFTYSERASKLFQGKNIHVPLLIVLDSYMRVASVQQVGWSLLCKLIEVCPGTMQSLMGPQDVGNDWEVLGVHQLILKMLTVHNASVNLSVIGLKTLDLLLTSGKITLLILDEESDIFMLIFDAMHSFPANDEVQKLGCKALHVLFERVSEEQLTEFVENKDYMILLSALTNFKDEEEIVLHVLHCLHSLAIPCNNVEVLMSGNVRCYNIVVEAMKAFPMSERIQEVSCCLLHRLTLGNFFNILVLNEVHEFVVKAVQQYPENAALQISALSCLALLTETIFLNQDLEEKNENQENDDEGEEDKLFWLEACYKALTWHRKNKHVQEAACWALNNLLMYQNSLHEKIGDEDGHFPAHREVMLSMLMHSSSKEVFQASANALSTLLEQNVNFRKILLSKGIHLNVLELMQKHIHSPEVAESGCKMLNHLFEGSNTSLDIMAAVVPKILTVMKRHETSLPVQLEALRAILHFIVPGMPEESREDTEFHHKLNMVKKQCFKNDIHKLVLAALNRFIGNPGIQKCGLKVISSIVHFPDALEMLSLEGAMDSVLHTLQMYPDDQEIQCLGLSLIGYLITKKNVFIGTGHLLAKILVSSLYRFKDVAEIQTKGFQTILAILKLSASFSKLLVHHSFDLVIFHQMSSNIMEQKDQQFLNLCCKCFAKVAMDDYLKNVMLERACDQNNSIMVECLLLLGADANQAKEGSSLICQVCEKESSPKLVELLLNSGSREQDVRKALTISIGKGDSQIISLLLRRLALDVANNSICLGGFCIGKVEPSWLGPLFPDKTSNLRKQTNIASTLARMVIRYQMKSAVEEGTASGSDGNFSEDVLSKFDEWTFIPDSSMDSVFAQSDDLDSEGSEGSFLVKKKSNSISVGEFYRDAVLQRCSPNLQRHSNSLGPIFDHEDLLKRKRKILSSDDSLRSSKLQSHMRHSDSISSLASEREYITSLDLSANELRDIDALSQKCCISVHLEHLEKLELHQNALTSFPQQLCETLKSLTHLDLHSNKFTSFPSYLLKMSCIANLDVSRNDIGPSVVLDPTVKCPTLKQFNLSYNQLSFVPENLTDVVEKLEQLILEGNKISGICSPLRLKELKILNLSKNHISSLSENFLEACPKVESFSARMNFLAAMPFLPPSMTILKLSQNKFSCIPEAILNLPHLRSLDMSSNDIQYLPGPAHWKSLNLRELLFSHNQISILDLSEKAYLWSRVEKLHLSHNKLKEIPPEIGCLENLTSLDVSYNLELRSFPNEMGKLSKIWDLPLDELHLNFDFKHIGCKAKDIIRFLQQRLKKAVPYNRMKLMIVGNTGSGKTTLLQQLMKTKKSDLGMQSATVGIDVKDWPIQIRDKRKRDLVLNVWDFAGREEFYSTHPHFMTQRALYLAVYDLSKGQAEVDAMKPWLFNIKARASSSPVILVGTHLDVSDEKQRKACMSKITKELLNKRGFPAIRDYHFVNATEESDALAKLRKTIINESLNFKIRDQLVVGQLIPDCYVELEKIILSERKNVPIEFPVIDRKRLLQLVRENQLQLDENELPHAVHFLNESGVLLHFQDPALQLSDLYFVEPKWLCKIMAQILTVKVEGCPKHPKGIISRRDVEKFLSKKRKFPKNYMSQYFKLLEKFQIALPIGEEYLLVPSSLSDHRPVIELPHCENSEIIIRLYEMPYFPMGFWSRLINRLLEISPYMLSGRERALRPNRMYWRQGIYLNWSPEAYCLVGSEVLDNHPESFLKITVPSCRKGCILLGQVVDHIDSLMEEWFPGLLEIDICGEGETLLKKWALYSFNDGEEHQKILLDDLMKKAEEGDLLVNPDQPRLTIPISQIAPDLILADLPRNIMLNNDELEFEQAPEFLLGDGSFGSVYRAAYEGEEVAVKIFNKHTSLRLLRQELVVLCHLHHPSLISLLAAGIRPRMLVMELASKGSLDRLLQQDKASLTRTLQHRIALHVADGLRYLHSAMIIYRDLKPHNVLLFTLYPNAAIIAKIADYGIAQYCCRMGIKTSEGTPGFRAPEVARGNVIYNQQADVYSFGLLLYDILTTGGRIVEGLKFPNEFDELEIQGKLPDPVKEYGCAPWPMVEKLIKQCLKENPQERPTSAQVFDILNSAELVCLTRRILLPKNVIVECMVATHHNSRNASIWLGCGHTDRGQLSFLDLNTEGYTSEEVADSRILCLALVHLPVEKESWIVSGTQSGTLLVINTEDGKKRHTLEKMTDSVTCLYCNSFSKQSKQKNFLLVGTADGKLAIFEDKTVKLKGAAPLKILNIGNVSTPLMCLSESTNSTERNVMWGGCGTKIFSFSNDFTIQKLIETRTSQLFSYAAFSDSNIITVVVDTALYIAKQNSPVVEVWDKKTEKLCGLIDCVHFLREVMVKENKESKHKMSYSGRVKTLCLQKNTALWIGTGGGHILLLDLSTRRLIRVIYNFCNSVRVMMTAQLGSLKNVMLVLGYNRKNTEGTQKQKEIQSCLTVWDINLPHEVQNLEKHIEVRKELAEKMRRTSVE

For `CCNc1nc(Nc2ccc(C(=O)N3CCOC(C)C3)cc2OC)nc2[nH]cc(C(F)(F)F)c12` (stereo in doubt) [Example 111, (S)-(4-((4-(ethylamino)-5-(trifluoromethyl)-7H-pyrrolo[2,3-d]pyrimidine-2-yl)amino)-3-methoxyphenyl)(2-methylmorpholino)methanone], the IC50 fell in the range of 10 to 100 nM.

Regarding `CCNc1nc(Nc2cc(OC)c(OC)c(OC)c2)nc2[nH]cc(C#N)c12` [Example 3, 4-(ethylamino)-2-((3,4,5-trimethoxyphenyl)amino)-7H-pyrrolo[2,3-d]pyrimidine-5-carbonitrile], the IC50 is < 10 nM.

Turning to `CCNc1nc(Nc2cnn(C)c2)nc2[nH]cc(C#N)c12` [Example 4, 4-(ethylamino)-2-((1-methyl-1H-pyrazole-4-yl)amino)-7H-pyrrolo[2,3-d]pyrimidine-5-carbonitrile], the IC50 is < 10 nM.

`CCNc1nc(Nc2ccn(C)n2)nc2[nH]cc(C#N)c12` [Example 5, 4-(ethylamino)-2-((1-methyl-1H-pyrazole-3-yl)amino)-7H-pyrrolo[2,3-d]pyrimidine-5-carbonitrile]: the IC50 is < 10 nM.

For the molecule `CCNc1nc(Nc2cc(F)c(C(=O)N3CCOCC3)cc2OC)nc2[nH]cc(C#N)c12` [Example 6, 4-(ethylamino)-2-((5-fluoro-2-methoxy-4-(morpholine-4-carbonyl)phenyl)amino)-7H-pyrrolo[2,3-d]pyrimidine-5-carbonitrile], the IC50 is < 10 nM.

Regarding `CCNc1nc(Nc2cc(F)c(C(=O)N3CCC(N4CCOCC4)CC3)cc2OC)nc2[nH]cc(C#N)c12` [Example 7, 4-(ethylamino)-2-((5-fluoro-2-methoxy-4-(4-morpholinopiperidine-1-carbonyl)phenyl)amino)-7H-pyrrolo[2,3-d]pyrimidine-5-carbonitrile], the IC50 was < 10 nM.

Consider `CCNc1nc(Nc2ccc(C(=O)N3CCC(N4CCOCC4)CC3)cc2OC)nc2[nH]cc(C#N)c12` [Example 8, 4-(ethylamino)-2-((2-methoxy-4-(4-morpholinopiperidine-1-carbonyl)phenyl)amino)-7H-pyrrolo[2,3-d]pyrimidine-5-carbonitrile], for which the IC50 was < 10 nM.

For the molecule `CNc1nc(Nc2ccc(C(=O)N3CCC(N4CCOCC4)CC3)cc2OC)nc2[nH]cc(C#N)c12` [Example 9, 2-((2-methoxy-4-(4-morpholinylpiperidine-1-carbonyl)phenyl)amino)-4-(methylamino)-7H-pyrrolo[2,3-d]pyrimidine-5-carbonitrile], the IC50 was < 10 nM.

For the molecule `CNc1nc(Nc2cc(F)c(C(=O)N3CCOCC3)cc2OC)nc2[nH]cc(C#N)c12` [Example 10, 2-((5-fluoro-2-methoxy-4-(morpholine-4-carbonyl)phenyl)amino)-4-(methylamino)-7H-pyrrolo[2,3-d]pyrimidine-5-carbonitrile], the IC50 was < 10 nM.

On to `CNc1nc(Nc2cc(F)c(C(=O)N3CCC(N4CCOCC4)CC3)cc2OC)nc2[nH]cc(C#N)c12` [Example 11, 2-((5-fluoro-2-methoxy-4-(4-morpholinopiperidine-1-carbonyl)phenyl)amino)-4-(methylamino)-7H-pyrrolo[2,3-d]pyrimidine-5-carbonitrile], for which the IC50 is < 10 nM.

For `CCCNc1nc(Nc2ccc(C(=O)N3CCOCC3)cc2OC)nc2[nH]cc(C#N)c12` [Example 12, 2-((2-methoxy-4-(morpholine-4-carbonyl)phenyl)amino)-4-(propylamino)-7H-pyrrolo[2,3-d]pyrimidine-5-carbonitrile], the IC50 was < 10 nM.

On to `CCCNc1nc(Nc2ccc(C(=O)N3CCC(N4CCOCC4)CC3)cc2OC)nc2[nH]cc(C#N)c12` [Example 13, 2-((2-methoxy-4-(4-morpholinopiperidine-1-carbonyl)phenyl)amino)-4-(propylamino)-7H-pyrrolo[2,3-d]pyrimidine-5-carbonitrile], for which the IC50 is < 10 nM.

Turning to `CCCNc1nc(Nc2cc(F)c(C(=O)N3CCOCC3)cc2OC)nc2[nH]cc(C#N)c12` [Example 14, 2-((5-fluoro-2-methoxy-4-(morpholine-4-carbonyl)phenyl)amino)-4-(propylamino)-7H-pyrrolo[2,3-d]pyrimidine-5-carbonitrile], the IC50 fell in the range of 10 to 100 nM.

On to `CCCNc1nc(Nc2cc(F)c(C(=O)N3CCC(N4CCOCC4)CC3)cc2OC)nc2[nH]cc(C#N)c12` [Example 15, 2-((5-fluoro-2-methoxy-4-(4-morpholinopiperidine-1-carbonyl)phenyl)amino)-4-(propylamino)-7H-pyrrolo[2,3-d]pyrimidine-5-carbonitrile], for which the IC50 was < 10 nM.

Turning to `COc1cc(C(=O)N2CCOCC2)ccc1Nc1nc(NC2CC2)c2c(C#N)c[nH]c2n1` [Example 16, 4-(cyclopropylamino)-2-((2-methoxy-4-(morpholine-4-carbonyl)phenyl)amino)-7H-pyrrolo[2,3-d]pyrimidine-5-carbonitrile], the IC50 is < 10 nM.

As for `COc1cc(C(=O)N2CCOCC2)c(F)cc1Nc1nc(NC2CC2)c2c(C#N)c[nH]c2n1` [Example 18, 4-(cyclopropylamino)-2-((5-fluoro-2-methoxy-4-(morpholine-4-carbonyl)phenyl)amino)-7H-pyrrolo[2,3-d]pyrimidine-5-carbonitrile], the IC50 is 10 to 100 nM.

Consider `COc1cc(C(=O)N2CCC(N3CCOCC3)CC2)c(F)cc1Nc1nc(NC2CC2)c2c(C#N)c[nH]c2n1` [Example 19, 4-(cyclopropylamino)-2-((5-fluoro-2-methoxy-4-(4-morpholinopiperidine-1-carbonyl)phenyl)amino)-7H-pyrrolo[2,3-d]pyrimidine-5-carbonitrile], for which the IC50 was 10 to 100 nM.

Consider `CNc1nc(Nc2ccc(C(=O)N3CCO[C@H](C)C3)cc2OC)nc2[nH]cc(C#N)c12` [Example 20, (R)-2-((2-methoxy-4-(2-methylmorpholine-4-carbonyl)phenyl)amino)-4-(methylamino)-7H-pyrrolo[2,3-d]pyrimidine-5-carbonitrile], for which the IC50 is < 10 nM.

On to `CNc1nc(Nc2ccc(C(=O)N3CCO[C@@H](C)C3)cc2OC)nc2[nH]cc(C#N)c12` [Example 21, (S)-2-((2-methoxy-4-(2-methylmorpholine-4-carbonyl)phenyl)amino)-4-(methylamino)-7H-pyrrolo[2,3-d]pyrimidine-5-carbonitrile], for which the IC50 was < 10 nM.

On to `CNc1nc(Nc2ccc(C(=O)N3C[C@@H](C)O[C@@H](C)C3)cc2OC)nc2[nH]cc(C#N)c12` [Example 22, 2-((4-((2R,6S)-2,6-dimethylmorpholine-4-carbonyl)-2-methoxyphenyl)amino)-4-(methylamino)-7H-pyrrolo[2,3-d]pyrimidine-5-carbonitrile], for which the IC50 was in the range of 10 to 100 nM.

For the molecule `CNc1nc(Nc2ccc(C(=O)N3CCC(F)(F)CC3)cc2OC)nc2[nH]cc(C#N)c12` [Example 23], the IC50 is < 10 nM.

`CCNc1nc(Nc2ccc(C(=O)N3C[C@@H](C)O[C@@H](C)C3)cc2OC)nc2[nH]cc(C#N)c12` [Example 24, 2-((4-((2R,6S)-2,6-dimethylmorpholine-4-carbonyl)-2-methoxyphenyl)amino)-4-(ethylamino)-7H-pyrrolo[2,3-d]pyrimidine-5-carbonitrile]: the IC50 was < 10 nM.

For `CCNc1nc(Nc2ccc(C(=O)N3CCO[C@H](C)C3)cc2OC)nc2[nH]cc(C#N)c12` [Example 25, (R)-4-(ethylamino)-2-((2-methoxy-4-(2-methylmorpholine-4-carbonyl)phenyl)amino)-7H-pyrrolo[2,3-d]pyrimidine-5-carbonitrile], the IC50 was < 10 nM.

As to `CCNc1nc(Nc2ccc(C(=O)N3CCO[C@@H](C)C3)cc2OC)nc2[nH]cc(C#N)c12` [Example 26, (S)-4-(ethylamino)-2-((2-methoxy-4-(2-methylmorpholine-4-carbonyl)phenyl)amino)-7H-pyrrolo[2,3-d]pyrimidine-5-carbonitrile], the IC50 is < 10 nM.

For `CCNc1nc(Nc2ccc(C(=O)N3CCC(F)(F)CC3)cc2OC)nc2[nH]cc(C#N)c12` [Example 27, 2-((4-(4,4-difluoropiperidine-1-carbonyl)-2-methoxyphenyl)amino)-4-(ethylamino)-7H-pyrrolo[2,3-d]pyrimidine-5-carbonitrile], the IC50 is < 10 nM.

In the case of `CNc1nc(Nc2cn(C)nc2C)nc2[nH]cc(C#N)c12` [Example 28, 6-((1,3-dimethyl-1H-pyrazole-4-yl)amino)-4-(methylamino)-1H-pyrrolo[2,3-b]pyrimidine-3-carbonitrile], the IC50 lay in the range of 10 to 100 nM.

As for `CNc1nc(Nc2cnn(C)c2C)nc2[nH]cc(C#N)c12` [Example 29, 6-((1,5-dimethyl-1H-pyrazole-4-yl)amino)-4-(methylamino)-1H-pyrrolo[2,3-b]pyrimidine-3-carbonitrile], the IC50 was 10 to 100 nM.

As to `CNc1nc(Nc2cn(C(C)C)nc2C)nc2[nH]cc(C#N)c12` [Example 30, 6-((1-isopropyl-3-methyl-1H-pyrazole-4-yl)amino)-4-(methylamino)-1H-pyrrolo[2,3-b]pyrimidine-3-carbonitrile], the IC50 fell in the range of 10 to 100 nM.

On to `CNc1nc(Nc2cnn(C(C)C)c2C)nc2[nH]cc(C#N)c12` [Example 31, 6-((1-isopropyl-5-methyl-1H-pyrazole-4-yl)amino)-4-(methylamino)-1H-pyrrolo[2,3-b]pyrimidine-3-carbonitrile], for which the IC50 is < 10 nM.

For `COc1cc(C(=O)N2CCOCC2)ccc1Nc1nc(NC2(C)CC2)c2c(C#N)c[nH]c2n1` [Example 36, 2-((2-methoxy-4-(morpholine-4-carbonyl)phenyl)amino)-4-((1-methylcyclopropyl)amino)-7H-pyrrolo[2,3-d]pyrimidine-5-carbonitrile], the IC50 is < 10 nM.

`COc1cc(C(=O)N2CCOCC2)c(F)cc1Nc1nc(NC2(C)CC2)c2c(C#N)c[nH]c2n1` [Example 37, 2-((5-fluoro-2-methoxy-4-(morpholine-4-carbonyl)phenyl)amino)-4-((1-methylcyclopropyl)amino)-7H-pyrrolo[2,3-d]pyrimidine-5-carbonitrile]: the IC50 is < 10 nM.

For the origin of these results see US11208412B2 (DAEGU-GYEONGBUK MEDICAL INNOVATION FOUNDATION, priority 2017, dated 2021).
